The test system of data set [1] is Mus musculus. Kind of data set: Toxicity in Swiss mouse assessed as abdominal pain at 0.3 to 3 mg/kg, ip administered for 7 days measured during compound dosing. The data set is classed as organism-based. The note with it: in vivo, 168 h.
The test system of data set [2] is Mus musculus. Kind of data set: Toxicity in Swiss mouse assessed as body weight gain per day at 3 mg/kg, ip administered for 7 days measured during compound dosing. The format is organism-based. As to conditions: in vivo, 168 h.
Data set [3] addresses Acetylcholinesterase (Electrophorus electricus) (UniProt O42275). Kind of data set: Inhibition of electric eel AChE at 25 uM using ATC iodide as substrate preincubated for 4.5 mins followed by substrate addition measured after 2.5 mins by Ellman's method relative to control. For orientation: Ellman's reagent forms a yellow product with free thiols.
The subject of data set [4] is Mus musculus. Kind of data set: Toxicity in Swiss mouse assessed as behavioral alteration at 0.3 to 3 mg/kg, ip administered for 7 days measured during compound dosing. The data set is classed as organism-based. As to conditions: in vivo, 168 h.
In the next data set the target is Acetylcholinesterase (Homo sapiens, UniProt P22303). Kind of data set: Inhibition of human erythrocyte AChE at 10 uM using ATC iodide as substrate preincubated for 4.5 mins followed by substrate addition measured after 2.5 mins by Ellman's method relative to control.
Acetylcholinesterase, sequence (P22303 whole entry): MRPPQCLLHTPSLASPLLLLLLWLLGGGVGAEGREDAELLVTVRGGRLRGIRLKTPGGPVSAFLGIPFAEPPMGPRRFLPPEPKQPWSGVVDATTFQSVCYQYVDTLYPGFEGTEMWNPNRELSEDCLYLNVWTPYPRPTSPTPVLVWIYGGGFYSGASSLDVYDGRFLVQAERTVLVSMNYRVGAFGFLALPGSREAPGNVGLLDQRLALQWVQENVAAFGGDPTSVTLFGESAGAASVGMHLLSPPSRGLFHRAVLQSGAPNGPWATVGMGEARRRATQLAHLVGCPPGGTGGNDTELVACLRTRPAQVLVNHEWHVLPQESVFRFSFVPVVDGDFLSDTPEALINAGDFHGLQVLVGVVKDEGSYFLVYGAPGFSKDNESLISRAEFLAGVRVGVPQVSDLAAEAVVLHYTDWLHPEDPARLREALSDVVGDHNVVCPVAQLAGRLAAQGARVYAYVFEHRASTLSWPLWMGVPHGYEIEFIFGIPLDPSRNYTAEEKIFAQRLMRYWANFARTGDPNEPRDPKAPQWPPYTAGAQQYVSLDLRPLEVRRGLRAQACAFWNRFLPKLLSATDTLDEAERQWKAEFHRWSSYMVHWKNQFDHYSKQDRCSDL
The test system of a further data set is U-266. The data set is described as follows: Cytotoxicity against human U266 cells assessed as decrease in cell viability after 72 hrs by MTT assay. As to conditions: U-266, 72 h. The format is cell-based. A general note: Tetrazolium dyes change colour on reduction, which living cells bring about.
A further data set concerns the target Cannabinoid receptor 1 (Homo sapiens, UniProt P21554). The data set is described as follows: Displacement of [3H]-[…] from human CB1 receptor expressed in CHO cell membranes at 10 uM after 3 hrs by scintillation counting method relative to control.
The test system of data set [5] is Mus musculus. Kind of data set: Toxicity in Swiss mouse assessed as body weight gain per day at 0.3 mg/kg, ip administered for 7 days measured during compound dosing. The format is organism-based. As to conditions: in vivo, 168 h.
Data set [6] relates to Mus musculus. The data set is described as follows: Pro-cognitive activity in Swiss mouse assessed as prevention of amyloid beta (25 to 35)-induced increase in escape latency at 1 to 3 mg/kg, ip administered for 7 days measured on day 10 by passive avoidance test. The format is functional, organism-based.
The subject of data set [7] is Mus musculus. The data set is described as follows: Toxicity in Swiss mouse assessed as body weight loss at 0.3 to 3 mg/kg, ip administered for 7 days measured during compound dosing. The data set is classed as organism-based. The note with it: in vivo, 168 h.
The test system of data set [8] is Mus musculus. Kind of data set: Toxicity in Swiss mouse assessed as body weight gain per day at 1 mg/kg, ip administered for 7 days measured during compound dosing. The data set is classed as organism-based. As to conditions: in vivo, 168 h.
Data set [9] concerns Mus musculus. Kind of data set: Toxicity in Swiss mouse assessed as prostration at 0.3 to 3 mg/kg, ip administered for 7 days measured during compound dosing. The format is organism-based. As to conditions: in vivo, 168 h.
The subject of data set [10] is Mus musculus. Kind of data set: Toxicity in Swiss mouse assessed as changes in fur aspects at 0.3 to 3 mg/kg, ip administered for 7 days measured during compound dosing. The format is organism-based. As to conditions: in vivo, 168 h.
Data set [11] concerns Mus musculus. The data set is described as follows: Pro-cognitive activity in ip dosed Swiss mouse assessed as prevention of amyloid beta (25 to 35)-induced step through latency deficit administered for 7 days measured on day 10 by passive avoidance test. The format is functional, organism-based.

Activity calls are given as the source filed them. No cut-off for these calls is given here.

Broadly, the inhibition is the relative decrease from the control value, in per cent. Higher therefore signals strong suppression. A word on the IC50: it is the point on the concentration scale where inhibition reaches its midpoint.

Cannabinoid receptor 1, sequence (P21554 whole entry): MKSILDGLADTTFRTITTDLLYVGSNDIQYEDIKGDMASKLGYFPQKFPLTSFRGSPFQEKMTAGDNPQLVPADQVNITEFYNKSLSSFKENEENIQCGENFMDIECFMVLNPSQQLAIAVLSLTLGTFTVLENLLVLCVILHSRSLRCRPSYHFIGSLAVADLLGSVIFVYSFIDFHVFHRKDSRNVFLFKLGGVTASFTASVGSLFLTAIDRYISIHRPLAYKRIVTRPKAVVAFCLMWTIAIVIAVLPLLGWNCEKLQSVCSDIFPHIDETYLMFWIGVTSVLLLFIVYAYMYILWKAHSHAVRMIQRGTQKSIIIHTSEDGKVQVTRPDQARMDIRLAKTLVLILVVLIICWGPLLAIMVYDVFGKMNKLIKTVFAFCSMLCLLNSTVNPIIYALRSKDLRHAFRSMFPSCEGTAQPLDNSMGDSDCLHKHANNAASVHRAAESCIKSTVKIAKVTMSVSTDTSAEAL
Acetylcholinesterase (Electrophorus electricus), sequence (O42275 24-633 limits assumed): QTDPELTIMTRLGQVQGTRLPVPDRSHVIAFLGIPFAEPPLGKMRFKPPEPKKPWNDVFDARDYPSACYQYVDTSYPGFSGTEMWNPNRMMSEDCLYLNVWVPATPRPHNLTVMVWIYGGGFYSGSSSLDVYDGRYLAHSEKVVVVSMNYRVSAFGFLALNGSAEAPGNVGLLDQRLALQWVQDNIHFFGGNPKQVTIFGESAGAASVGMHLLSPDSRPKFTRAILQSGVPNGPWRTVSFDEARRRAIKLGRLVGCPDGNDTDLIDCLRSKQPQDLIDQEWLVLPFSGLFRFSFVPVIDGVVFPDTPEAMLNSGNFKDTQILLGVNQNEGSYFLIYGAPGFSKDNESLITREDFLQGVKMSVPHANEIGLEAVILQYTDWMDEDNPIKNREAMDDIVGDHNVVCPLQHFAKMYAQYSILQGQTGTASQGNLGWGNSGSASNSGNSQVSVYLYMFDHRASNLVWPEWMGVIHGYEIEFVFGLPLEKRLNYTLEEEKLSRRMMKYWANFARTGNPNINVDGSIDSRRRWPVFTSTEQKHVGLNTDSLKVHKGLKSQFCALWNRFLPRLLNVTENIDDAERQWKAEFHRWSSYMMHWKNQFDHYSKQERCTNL

As to `CCOc1ccc(Cc2nc3cc(C(=O)NCCC(C)C)ccc3n2CCC(C)C)cc1`, the Activity result is on record as “Non-Toxic” with Mus musculus [1]; 0 g with Mus musculus [2]; “Non-Toxic” in the data set on Mus musculus [4]; 0.2 g in the data set with Mus musculus [5]; “Non-Toxic” in the data set with Mus musculus [7]; 0.1 g in the data set with Mus musculus [8]. Moreover, the Activity result with Mus musculus [9] is “Non-Toxic”; with Mus musculus [10] it was “Non-Toxic”; with Mus musculus [11], “Dose-dependent effect”. Also, the inhibition was 3% in [3], 11% at Acetylcholinesterase and 37% on Cannabinoid receptor 1. Also, in the data set with U-266, the IC50 was more than 40 µM. For the same molecule, in the data set with Mus musculus [6], the outcome was Active.

The record behind these values is ChEMBL document CHEMBL4020829, “Structure-Activity Relationships and Computational Investigations into the Development of Potent and Balanced Dual-Acting Butyrylcholinesterase Inhibitors and Human Cannabinoid Receptor 2 Ligands with Pro-Cognitive in Vivo Profiles” (J Med Chem, 2018).
